US11466006B2, “Dual selective PI3 delta and gamma kinase inhibitors” (Rhizen Pharmaceuticals SA, priority 2013, dated 2022)

What was measured:
TNF-α = assay: Lipopolysaccharide induced TNF-α production; format: in vivo, rat
Experimental: Fasted female wistar rats were randomized into different groups depending on their body weights. Test compound (Compound A1) was prepared as a suspension in a vehicle consisting of 0.5% methylcellulose. The compound or vehicle was administered by oral gavage in a volume of 10 mL/kg. LPS solution was administered intraperitoneally one hour after compound administration at a dose of 0.3 mg/kg. Blood was collected in serum separator tubes via cardiac puncture ninety minutes after LPS injection. Serum was separated and stored at −20° C. and will be analysed for TNFα by ELISA.

male guinea pigs = assay: Ovalbumin induced pulmonary eosinophilia in male guinea pigs; format: in vivo, guinea pig; conditions: sensitized guinea pigs, 0.3, 1, 3 mg/kg oral
Experimental: After the quarantine period, 0.3 mL of blood samples was collected from orbital vein by retro-orbital plexus method from each individual animal and analysed on a cell analyser (ADVIA 2120, Siemens). Based on their total cell count, guinea pigs were randomized and divided into various groups. Ear pinna was marked with an indelible marking pen for identification. On day 0, weights were recorded and animals were sensitized with 50 μg of Ovalbumin (OVA) and 10 mg of alum solution (1 mL) intraperitoneally. On day 7 and day 14, the above sensitization protocol was repeated. […] On day 19, 20, and 21, after the treatment with test compound by oral gavage, 30 mins later animals were exposed to 0.5% w/v, 0.5% and 1% Ovalbumin challenge respectively. Control & sham group animals were treated with 0.5% w/v methyl cellulose (vehicle). Sham control groups were sensitized with 10 mg of alum on day 0, 7 & 14 and exposed to saline solution (SAL) with the same nebulization rate on day 19. 20 and 21. Twenty hours after last OVA challenge, airway hyperresponsiveness was measured by whole body plethysmograph against cumulative doses of methacholine challenge (75, 100, 125 & 150 μg/ml), after measuring the airway response, blood samples and BAL fluid was collected. Samples were analysed for total cell count by using neubuear chamber under microscope and differential leukocyte count was done manually.

PI3K alpha = target: T1, PI3K alpha (Mus musculus, UniProt P42337); assay: PDGF induced Akt phosphorylation in 3T3 cells (PI3Kα selectivity); format: cell-based
T1 construct: endogenous in cells; host or cells: 3T3 fibroblasts
Experimental: The objective of this study was to determine the effect of Compound A1 on PI3Kα kinase mediated AktS473 phosphorylation in PDGF induced 3T3 fibroblasts. • 3T3 cells were treated with desired concentrations of the test compound for 15 min. 1 ml of 2× PDGF was added such that the final concentration was 20 ng/ml and incubated for 10 min. • Media was discarded and washed with 1 ml of ice-cold 1× PBS. • 250 μl of cell lysis buffer was added and incubated on ice for 30 min. • Samples were centrifuged and supernatant was collected and stored at −80° C. until analysis. • Samples were analyzed by Western Blotting using pAKT (S473) as the primary and anti-rabbit IgG-HRP as a secondary antibody. • Intensity of the bands was determined using ImageJ 1.42q (NIH, USA) and normalized to Actin (loading control). Data was plotted using GraphPad Prism (Version 5.02).

PI3K delta = target: T2, PI3K delta (Homo sapiens, UniProt O00329); assay: Anti-IgM induced B-cell proliferation (PI3Kδ selectivity); format: cell-based; conditions: read-out: Cellular IC50 PI3K delta (anti-IgM induced human B-cell proliferation)
T2 construct: Isolated B-cells were re-suspended to 1.0×10^6 cells per ml; endogenous in cells; host or cells: isolated human B cells
Experimental: The objective of this study was to assess the inhibitory potential of Compound A1 on anti-IgM induced human B-cell proliferation.
• Isolated B-cells were re-suspended to 1.0×10^6 cells per ml. 100 μl of cell suspension was added to each well of a 96-well plate. Triplicates were maintained. • 50 μl of drug dilution was added and mixed well. A DMSO blank and inducer blank were maintained. • Treated plate was incubated for 30 min at 37° C., 5% CO2 and then 50 μl of 4× inducer was added and mixed by pipetting. • Plate was incubated at 37° C., 5% CO2 for 72 h. • Media was aspirated and 150 μl of DMSO was added to dissolve the formazan crystals. • Absorbance was read at A560 and A640 nm.

Female Wistar rats = assay: Lipopolysaccharide induced pulmonary neutrophilia in female Wistar rat model; format: in vivo; conditions: Neutrophil, oral gavage, 1 h before intratracheal LPS, BAL at 6 h, read-out: ED50, reduction of neutrophil infiltration into the lungs
Experimental: After the quarantine period, fasted animals were randomized and divided into various groups depending on their body weights. The test compound [Compound A1] was prepared as a suspension in a vehicle consisting of 0.5% methylcellulose in which Tween 80 as a suspending agent. The compound or vehicle was administered by oral gavage in a volume of 10 mL/kg. Female Wistar rats were anaesthetized with ketamine and LPS solution was administered intratracheally one hour after compound administration at a dose of 1 mg/kg. 6 h after LPS instillation, animals were exsanguinated under anaesthesia, and then trachea was cannulated and the lungs were lavaged with 5-ml aliquots of heparinised PBS (1 unit/ml) four times through tracheal cannula (total volume 20 ml). Bronchoalveolar lavage (BAL) fluid was been stored at 2-8° C. until assayed for total cell and differential leukocyte count. Bronchioalveolar fluid was centrifuged (500×g for 10 min) and the resulting cell pellet was resuspended in 0.5 ml of heparinised saline. The total numbers of white blood cells were determined in BAL fluid or blood by using a blood cell counter and was adjusted to 1×10^6 cell/ml. Differential cell count was calculated manually. […] The number of each cell type among 300 white blood cells in the cell smear was determined and expressed as a percentage. The number of eosinophil in each BALf or blood was calculated.

[1] = system: T-lymphoma (MOLT-4, Jurkat, CCRF-CEM, Hut-78 & HuT-102) cells; assay: In vitro cell proliferation assay in leukemic cell lines (MTT); format: cell-based
Experimental: Growth inhibition assays were carried out using 10% FBS supplemented media. Cells were seeded at a concentration of 5000-20,000 cells/well in a 96-well plate. Test compounds at a concentration range from 0.01 to 10000 nM were added after 24 h. Growth was assessed using the 3-[4,5-dimethylthiazol-2-yl]-2,5-diphenyltetrazolium bromide (MTT) dye reduction test at 0 h (prior to the addition of the test compound) and 72 h after the addition of test compound. Absorbance was read on a Fluostar Optima (BMG Labtech, Germany) at a wave length of 450 nm. Data were analysed using GraphPad Prism and percent inhibition due to the test compound compared to the control was calculated accordingly.

T1 sequence (P42337 whole entry): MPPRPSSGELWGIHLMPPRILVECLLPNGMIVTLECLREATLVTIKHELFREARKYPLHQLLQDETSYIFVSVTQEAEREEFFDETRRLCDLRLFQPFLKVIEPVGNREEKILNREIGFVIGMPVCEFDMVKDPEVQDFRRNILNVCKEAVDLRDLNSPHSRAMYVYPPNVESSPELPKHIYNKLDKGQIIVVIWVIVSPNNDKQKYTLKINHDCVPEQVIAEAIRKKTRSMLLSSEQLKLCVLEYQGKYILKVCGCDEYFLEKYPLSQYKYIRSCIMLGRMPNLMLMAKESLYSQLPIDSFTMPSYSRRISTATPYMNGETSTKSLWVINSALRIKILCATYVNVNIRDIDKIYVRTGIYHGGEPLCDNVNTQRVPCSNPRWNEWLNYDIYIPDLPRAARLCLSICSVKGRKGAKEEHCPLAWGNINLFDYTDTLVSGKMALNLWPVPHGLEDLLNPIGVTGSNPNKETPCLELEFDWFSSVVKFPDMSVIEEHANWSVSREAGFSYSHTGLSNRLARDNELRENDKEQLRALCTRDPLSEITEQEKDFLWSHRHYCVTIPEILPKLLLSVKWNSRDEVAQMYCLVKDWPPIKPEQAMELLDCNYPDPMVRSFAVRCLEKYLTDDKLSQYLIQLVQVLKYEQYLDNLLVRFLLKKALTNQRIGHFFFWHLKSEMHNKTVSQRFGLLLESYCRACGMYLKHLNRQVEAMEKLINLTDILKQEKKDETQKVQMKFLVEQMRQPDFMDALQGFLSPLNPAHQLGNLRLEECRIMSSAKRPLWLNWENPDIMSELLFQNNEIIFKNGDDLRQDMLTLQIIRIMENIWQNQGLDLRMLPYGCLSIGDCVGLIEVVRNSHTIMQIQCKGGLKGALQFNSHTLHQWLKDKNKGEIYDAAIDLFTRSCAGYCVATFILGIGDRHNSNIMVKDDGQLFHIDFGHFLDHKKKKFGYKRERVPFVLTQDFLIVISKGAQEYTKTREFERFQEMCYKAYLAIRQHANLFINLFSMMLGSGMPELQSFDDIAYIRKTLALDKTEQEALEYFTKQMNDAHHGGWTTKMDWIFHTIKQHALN
T1 sequence (P26450 whole entry partner): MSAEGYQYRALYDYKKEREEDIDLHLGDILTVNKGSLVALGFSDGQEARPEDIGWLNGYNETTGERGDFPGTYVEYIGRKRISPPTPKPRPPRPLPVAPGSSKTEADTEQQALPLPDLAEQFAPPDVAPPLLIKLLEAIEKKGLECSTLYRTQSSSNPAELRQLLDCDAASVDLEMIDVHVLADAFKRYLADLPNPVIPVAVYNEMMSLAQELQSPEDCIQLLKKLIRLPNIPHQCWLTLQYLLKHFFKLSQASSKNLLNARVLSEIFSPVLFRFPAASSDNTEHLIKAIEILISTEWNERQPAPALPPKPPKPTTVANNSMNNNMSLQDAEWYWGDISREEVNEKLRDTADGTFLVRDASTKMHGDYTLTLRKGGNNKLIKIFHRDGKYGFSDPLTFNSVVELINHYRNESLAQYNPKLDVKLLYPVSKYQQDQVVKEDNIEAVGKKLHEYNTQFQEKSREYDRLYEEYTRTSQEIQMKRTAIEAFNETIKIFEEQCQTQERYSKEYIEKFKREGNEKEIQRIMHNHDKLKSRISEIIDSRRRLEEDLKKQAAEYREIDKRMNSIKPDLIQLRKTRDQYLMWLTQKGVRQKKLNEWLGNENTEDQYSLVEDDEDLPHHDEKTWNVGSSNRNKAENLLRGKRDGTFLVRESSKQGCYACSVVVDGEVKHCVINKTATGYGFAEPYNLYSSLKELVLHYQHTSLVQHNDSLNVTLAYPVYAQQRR
T2 sequence (O00329 whole entry): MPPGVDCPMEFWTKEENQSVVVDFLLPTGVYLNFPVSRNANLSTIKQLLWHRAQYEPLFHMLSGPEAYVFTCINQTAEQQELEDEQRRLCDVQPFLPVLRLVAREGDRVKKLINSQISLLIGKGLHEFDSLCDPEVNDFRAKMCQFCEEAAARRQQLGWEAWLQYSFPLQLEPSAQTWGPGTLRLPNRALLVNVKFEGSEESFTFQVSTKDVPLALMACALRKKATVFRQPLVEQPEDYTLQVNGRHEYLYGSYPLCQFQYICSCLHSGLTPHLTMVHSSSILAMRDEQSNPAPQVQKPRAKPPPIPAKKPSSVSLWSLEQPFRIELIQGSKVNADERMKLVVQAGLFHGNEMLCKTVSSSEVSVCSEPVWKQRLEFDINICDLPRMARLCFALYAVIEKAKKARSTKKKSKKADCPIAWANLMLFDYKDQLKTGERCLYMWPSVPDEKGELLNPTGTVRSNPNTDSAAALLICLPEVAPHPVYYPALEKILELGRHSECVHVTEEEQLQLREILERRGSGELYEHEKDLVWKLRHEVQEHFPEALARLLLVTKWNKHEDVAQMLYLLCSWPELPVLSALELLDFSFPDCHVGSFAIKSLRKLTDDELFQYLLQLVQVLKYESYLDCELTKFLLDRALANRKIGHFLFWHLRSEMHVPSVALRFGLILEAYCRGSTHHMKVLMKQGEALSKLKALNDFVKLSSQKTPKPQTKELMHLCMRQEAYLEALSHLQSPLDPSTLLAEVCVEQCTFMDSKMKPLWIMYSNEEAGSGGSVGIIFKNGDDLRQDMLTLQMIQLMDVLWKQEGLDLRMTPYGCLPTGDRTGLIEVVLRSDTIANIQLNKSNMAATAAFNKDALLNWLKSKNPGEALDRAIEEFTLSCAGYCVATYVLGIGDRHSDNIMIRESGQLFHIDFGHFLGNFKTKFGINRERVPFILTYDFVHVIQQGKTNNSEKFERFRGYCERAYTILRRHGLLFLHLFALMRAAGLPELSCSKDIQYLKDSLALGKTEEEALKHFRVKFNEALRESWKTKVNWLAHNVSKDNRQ
T2 sequence (P27986 whole entry partner): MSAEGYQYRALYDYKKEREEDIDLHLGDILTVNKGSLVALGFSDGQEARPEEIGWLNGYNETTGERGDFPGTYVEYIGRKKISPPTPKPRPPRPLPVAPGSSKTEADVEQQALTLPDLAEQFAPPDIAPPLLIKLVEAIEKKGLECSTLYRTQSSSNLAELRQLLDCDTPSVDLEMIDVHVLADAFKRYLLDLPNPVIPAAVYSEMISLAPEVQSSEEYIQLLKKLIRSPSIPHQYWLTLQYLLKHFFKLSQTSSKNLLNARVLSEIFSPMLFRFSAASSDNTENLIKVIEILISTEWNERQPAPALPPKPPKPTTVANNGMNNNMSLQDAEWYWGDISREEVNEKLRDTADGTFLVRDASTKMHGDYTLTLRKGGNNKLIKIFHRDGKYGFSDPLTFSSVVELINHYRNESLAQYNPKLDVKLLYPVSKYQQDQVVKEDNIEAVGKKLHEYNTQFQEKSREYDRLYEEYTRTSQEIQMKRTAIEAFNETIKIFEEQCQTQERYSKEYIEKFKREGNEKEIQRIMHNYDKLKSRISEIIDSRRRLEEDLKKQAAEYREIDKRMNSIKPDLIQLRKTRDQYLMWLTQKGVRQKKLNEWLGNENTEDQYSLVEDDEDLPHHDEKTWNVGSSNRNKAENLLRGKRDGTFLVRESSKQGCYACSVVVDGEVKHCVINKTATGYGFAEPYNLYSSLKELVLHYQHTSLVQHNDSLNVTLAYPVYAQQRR

In the case of CC[C@H](Nc1ncnc2[nH]cnc12)c1oc2ccccc2c(=O)c1-c1cccc(F)c1 [Compound A1, (S)-2-(1-(9H-purin-6-ylamino)propyl)-3-(3-fluorophenyl)-4H-chromen-4-one], the “percent inhibition of plasma TNFα” value (TNF-α; 1 mg/kg po) is reported as 5%, the “percent inhibition of plasma TNFα” value (TNF-α; 3 mg/kg po) is reported as 15% and the “percent inhibition of plasma TNFα” value (TNF-α; 10 mg/kg po) is reported as 40%. For the same compound, the “airway hyperresponsiveness against methacholine challenge” value (male guinea pigs) was “significant dose dependent reduction”, the “eosinophil infiltration into the bronchoalveolar lavage fluid” value (male guinea pigs) was “significant dose dependent reduction” and the “inhibition of PDGF induced AktS473 phosphorylation” value (PI3K alpha; at 10 μM, 3T3 fibroblasts) was “No inhibition”. It also gave an IC50 (PI3K alpha; read-out: Cellular IC50 PI3K alpha (PDGF induced pAKT in 3T3 fibroblasts)) greater than 10000 nM, an IC50 (PI3K delta) of 38.1 nM and an ED50 (Female Wistar rats) of 6.5 mg/kg. The apparent cytotoxicity ([1]; 72-h incubation period, up to 10 μM) was “did not display any apparent cytotoxicity” and the GI50 ([1]; MOLT-4, Jurkat, CCRF-CEM, Hut-78 & HuT-102, 72 h, MTT, read-out: GI50, reduction in T-lymphoma cell viability) was 1000 to 5000 nM.
